US20260365670A1, “EGFR INHIBITORS AND USES THEREOF” (DIZAL (JIANGSU) PHARMACEUTICAL CO., LTD., priority 2022, published 2026)
Where two headings read alike, the source gives them in different places.

What was measured:
[1] = target: T1, EGFR wild type (Homo sapiens, UniProt P00533); assay: Inhibition of EGFR wild type biochemical enzymatic activity (HTRF); details: 1 mM ATP
T1 construct: purchased Carna Bio
How it was run: (§1)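 HTRF kinase assay: each EGFR enzyme phosphorylated 1 μM biotinylated TK substrate with 1 mM ATP in buffer containing 5 mM MgCl2, 1 mM MnCl2, 0.01% CHAPS, 1 mM DTT, 0.5% DMSO. After 1 h at room temperature, EDTA detection mix stopped the reaction. IC50 came from a four-parameter logistic fit of the 665/615 nm ratio.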

[2] = target: T2, EGFR L858R (Homo sapiens, UniProt P00533, L858R); assay: Inhibition of EGFR L858R biochemical enzymatic activity (HTRF); details: 1 mM ATP
T2 construct: purchased Carna Bio
T2 sequence (P00533 25-1210 L858R): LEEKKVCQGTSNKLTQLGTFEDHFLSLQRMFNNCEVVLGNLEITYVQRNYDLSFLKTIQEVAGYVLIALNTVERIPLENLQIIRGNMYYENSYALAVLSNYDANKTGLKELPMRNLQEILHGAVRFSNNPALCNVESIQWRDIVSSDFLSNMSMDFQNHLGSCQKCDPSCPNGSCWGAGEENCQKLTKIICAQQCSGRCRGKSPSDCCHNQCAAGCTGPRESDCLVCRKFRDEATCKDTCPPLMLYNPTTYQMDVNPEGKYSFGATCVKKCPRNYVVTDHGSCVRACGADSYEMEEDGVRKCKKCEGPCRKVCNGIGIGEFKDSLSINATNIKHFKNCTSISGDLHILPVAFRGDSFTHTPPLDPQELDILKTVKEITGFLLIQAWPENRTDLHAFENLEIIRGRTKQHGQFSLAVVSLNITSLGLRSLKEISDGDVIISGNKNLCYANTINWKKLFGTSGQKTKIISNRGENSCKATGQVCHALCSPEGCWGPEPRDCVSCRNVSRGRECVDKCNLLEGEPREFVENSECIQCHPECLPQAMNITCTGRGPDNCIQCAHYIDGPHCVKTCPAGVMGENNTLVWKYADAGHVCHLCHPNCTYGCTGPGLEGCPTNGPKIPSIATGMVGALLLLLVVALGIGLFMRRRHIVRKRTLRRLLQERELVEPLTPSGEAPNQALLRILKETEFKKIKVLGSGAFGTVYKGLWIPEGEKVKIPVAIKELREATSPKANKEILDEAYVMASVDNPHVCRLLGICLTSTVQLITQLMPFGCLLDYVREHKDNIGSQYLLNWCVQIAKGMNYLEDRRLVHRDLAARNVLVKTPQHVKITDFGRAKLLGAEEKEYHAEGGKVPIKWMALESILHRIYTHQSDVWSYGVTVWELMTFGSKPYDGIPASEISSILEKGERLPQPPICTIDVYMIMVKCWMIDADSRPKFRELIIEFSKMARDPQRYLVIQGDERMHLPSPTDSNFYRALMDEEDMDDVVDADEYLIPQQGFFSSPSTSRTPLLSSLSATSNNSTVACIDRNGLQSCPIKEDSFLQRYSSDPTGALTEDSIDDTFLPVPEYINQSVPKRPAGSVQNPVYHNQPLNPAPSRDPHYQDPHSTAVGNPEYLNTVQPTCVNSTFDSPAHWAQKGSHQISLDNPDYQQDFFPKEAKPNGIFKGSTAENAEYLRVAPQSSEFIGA
How it was run: as §1

[3] = target: T3, EGFR L858R/T790M (Homo sapiens, UniProt P00533, L858R/T790M); assay: Inhibition of EGFR L858R/T790M biochemical enzymatic activity (HTRF); details: 1 mM ATP
T3 construct: purchased Carna Bio
How it was run: as §1

[4] = target: T4, EGFR Exon19Del (Homo sapiens, UniProt P00533, DEL746-750); assay: Inhibition of EGFR Exon19Del biochemical enzymatic activity (HTRF); details: read-out: IC50 @Del19
T4 construct: purchased Carna Bio
T4 sequence (P00533 with tags, fused parts or gaps DEL746-750 limits assumed): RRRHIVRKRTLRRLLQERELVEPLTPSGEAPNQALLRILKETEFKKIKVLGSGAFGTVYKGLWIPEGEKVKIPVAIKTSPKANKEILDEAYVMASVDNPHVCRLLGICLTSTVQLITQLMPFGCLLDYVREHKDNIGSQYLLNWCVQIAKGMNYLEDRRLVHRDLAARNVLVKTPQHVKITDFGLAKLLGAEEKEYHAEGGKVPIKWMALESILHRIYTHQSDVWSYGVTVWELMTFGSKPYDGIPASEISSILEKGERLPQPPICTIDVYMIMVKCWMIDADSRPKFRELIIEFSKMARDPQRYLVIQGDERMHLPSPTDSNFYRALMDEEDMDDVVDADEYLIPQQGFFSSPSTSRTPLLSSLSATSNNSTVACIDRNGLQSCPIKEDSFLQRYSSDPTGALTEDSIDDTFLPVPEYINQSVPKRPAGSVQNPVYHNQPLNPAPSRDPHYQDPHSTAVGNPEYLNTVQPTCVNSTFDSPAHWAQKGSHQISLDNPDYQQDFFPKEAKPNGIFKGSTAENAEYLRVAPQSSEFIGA
How it was run: as §1

[5] = target: T5, EGFR Exon19Del/T790M (Homo sapiens, UniProt P00533, DEL746-750/T790M); assay: Inhibition of EGFR Exon19Del/T790M biochemical enzymatic activity (HTRF); details: 1 mM ATP
T5 construct: purchased Carna Bio
T5 sequence (P00533 with tags, fused parts or gaps DEL746-750/T790M limits assumed): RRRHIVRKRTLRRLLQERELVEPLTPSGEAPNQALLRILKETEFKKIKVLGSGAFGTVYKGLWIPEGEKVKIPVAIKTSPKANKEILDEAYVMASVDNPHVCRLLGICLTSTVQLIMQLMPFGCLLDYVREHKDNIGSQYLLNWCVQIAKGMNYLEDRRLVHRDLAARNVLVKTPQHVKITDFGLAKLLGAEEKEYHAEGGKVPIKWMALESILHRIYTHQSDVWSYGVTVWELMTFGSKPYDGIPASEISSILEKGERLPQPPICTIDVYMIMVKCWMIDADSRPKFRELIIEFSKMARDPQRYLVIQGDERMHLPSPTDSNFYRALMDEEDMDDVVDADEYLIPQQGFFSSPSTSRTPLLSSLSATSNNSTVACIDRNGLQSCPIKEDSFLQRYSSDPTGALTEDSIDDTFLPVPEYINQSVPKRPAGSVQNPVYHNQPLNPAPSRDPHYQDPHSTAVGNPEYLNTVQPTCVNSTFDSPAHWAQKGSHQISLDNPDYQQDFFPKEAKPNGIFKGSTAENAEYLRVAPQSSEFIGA
How it was run: as §1

[6] = target: T6, EGFR[T790M/C797S/L858R] (Homo sapiens, UniProt P00533, C797S/L858R/T790M); assay: Inhibition of EGFR[T790M/C797S/L858R] biochemical enzymatic activity (HTRF); details: 1 mM ATP
T6 construct: purchased Carna Bio
T6 sequence (P00533 25-1210 T790M/C797S/L858R): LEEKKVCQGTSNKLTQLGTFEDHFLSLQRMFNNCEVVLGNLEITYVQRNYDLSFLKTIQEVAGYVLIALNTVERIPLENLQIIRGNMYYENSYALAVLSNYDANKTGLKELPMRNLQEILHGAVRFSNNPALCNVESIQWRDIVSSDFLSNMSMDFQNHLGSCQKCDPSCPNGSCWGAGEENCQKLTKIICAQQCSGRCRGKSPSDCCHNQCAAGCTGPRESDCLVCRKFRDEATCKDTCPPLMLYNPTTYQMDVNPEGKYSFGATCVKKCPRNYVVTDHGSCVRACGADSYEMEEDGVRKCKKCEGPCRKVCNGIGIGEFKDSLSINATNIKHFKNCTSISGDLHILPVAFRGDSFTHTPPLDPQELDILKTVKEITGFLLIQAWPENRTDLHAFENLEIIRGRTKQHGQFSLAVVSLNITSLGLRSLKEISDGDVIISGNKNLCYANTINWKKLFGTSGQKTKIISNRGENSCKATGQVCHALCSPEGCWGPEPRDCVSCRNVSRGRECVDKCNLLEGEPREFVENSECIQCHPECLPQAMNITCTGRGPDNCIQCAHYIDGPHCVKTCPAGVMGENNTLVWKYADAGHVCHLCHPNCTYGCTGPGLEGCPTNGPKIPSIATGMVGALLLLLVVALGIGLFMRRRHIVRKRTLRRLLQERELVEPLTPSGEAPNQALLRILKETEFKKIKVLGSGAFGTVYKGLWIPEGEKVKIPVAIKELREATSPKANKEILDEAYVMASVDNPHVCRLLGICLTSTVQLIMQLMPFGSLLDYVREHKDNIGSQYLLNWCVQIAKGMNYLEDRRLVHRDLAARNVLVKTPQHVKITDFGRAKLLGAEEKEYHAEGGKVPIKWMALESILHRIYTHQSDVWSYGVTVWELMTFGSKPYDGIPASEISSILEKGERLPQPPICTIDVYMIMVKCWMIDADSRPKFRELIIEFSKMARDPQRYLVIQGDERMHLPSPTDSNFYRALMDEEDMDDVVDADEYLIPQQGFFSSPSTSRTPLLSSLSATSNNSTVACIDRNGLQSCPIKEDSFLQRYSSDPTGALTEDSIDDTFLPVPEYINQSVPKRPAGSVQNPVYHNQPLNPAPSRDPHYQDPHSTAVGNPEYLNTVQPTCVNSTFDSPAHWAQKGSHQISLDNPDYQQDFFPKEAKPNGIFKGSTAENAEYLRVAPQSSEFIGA
How it was run: as §1

[7] = target: T7, EGFR[T790M/C797S/d746-750] (Homo sapiens, UniProt P00533, C797S/DEL746-750/T790M); assay: Inhibition of EGFR[T790M/C797S/d746-750] biochemical enzymatic activity (HTRF)
T7 construct: purchased Carna Bio
T7 sequence (P00533 with tags, fused parts or gaps DEL746-750/T790M/C797S limits assumed): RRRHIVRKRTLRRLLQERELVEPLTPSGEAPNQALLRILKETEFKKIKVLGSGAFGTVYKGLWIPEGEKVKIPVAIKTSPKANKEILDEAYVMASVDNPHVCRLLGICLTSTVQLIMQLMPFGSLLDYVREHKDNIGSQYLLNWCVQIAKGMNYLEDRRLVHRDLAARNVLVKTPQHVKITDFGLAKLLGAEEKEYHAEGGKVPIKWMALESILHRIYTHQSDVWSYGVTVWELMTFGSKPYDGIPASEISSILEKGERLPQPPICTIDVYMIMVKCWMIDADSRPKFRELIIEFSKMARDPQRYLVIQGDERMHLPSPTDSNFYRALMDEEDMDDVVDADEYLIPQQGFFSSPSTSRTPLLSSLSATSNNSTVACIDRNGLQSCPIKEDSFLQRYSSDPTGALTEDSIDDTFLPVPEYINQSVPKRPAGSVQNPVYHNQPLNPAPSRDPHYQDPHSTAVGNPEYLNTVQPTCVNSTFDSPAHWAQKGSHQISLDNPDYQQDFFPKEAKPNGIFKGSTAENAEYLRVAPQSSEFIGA
How it was run: as §1

[8] = target: T8, EGFR (d746-750 C797S) (Homo sapiens, UniProt P00533, C797S/DEL746-750); assay: Inhibition of EGFR (d746-750 C797S) biochemical enzymatic activity (HTRF); details: 1 mM ATP
T8 construct: purchased signalchem
T8 sequence (P00533 with tags, fused parts or gaps DEL746-750/C797S limits assumed): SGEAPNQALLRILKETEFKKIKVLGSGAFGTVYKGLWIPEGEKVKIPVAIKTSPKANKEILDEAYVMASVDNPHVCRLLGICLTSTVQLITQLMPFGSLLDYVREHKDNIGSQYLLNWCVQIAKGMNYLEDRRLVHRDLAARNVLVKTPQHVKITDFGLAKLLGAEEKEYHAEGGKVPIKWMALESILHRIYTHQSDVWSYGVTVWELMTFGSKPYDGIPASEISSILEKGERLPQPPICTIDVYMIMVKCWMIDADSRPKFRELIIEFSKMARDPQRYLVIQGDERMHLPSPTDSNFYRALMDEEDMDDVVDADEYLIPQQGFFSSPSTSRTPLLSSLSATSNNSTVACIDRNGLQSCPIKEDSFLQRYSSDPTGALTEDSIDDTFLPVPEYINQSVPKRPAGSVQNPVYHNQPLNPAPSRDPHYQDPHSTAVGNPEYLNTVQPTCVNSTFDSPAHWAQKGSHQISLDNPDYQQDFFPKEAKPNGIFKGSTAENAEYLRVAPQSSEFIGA
How it was run: as §1

[9] = target: T9, EGFR (C797S L858R) (Homo sapiens, UniProt P00533, C797S/L858R); assay: Inhibition of EGFR (C797S L858R) biochemical enzymatic activity (HTRF); details: 1 mM ATP
T9 construct: purchased signalchem
How it was run: as §1

[10] = tested on: Ba/F3 cells expressing EGFR mutations; assay: Cell proliferation assay, Ba/F3 cells expressing EGFR mutations (CellTiter-Glo, 72 hours); assay type: cell-based
How it was run: (§2)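 Seed Ba/F3 at 5000 cells/well and PC-9 at 500 cells/well (10% FBS RPMI1640); incubate overnight; add compound dilution series; read a G0 plate; incubate; read G3; GI50 from best-fit curve.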

[11] = tested on: PC-9; assay: Cell proliferation assay, PC-9 cells (CellTiter-Glo, 72 hours); assay type: cell-based; details: PC9 cells
How it was run: as §2

[12] = EGFR wild type, 1 h at room temperature, read-out: IC50 @WT
[13] = 1 h at room temperature, read-out: IC50 @L858R
[14] = EGFR L858R/T790M, 1 h at room temperature, read-out: IC50 @L858R-T790M
[15] = EGFR Exon19Del, 1 mM ATP, 1 h at room temperature
[16] = EGFR Exon19Del/T790M, 1 h at room temperature, read-out: IC50 @Del19-T790M
[17] = EGFR[T790M/C797S/L858R], 1 h at room temperature, read-out: IC50 @T790M- C797S - L858R
[18] = EGFR[T790M/C797S/d746-750], 1 mM ATP, 1 h at room temperature, read-out: IC50 @T790M - C797S - Del19
[19] = EGFR (d746-750 C797S), 1 h at room temperature, read-out: IC50 @Del19-C797S
[20] = EGFR (C797S L858R), 1 h at room temperature, read-out: IC50 @L858-C797S
[21] = Mus musculus, BaF3, 72 h, BaF3 cells, EGFR DEL19 - C797S, read-out: GI50 DEL19 - C797S/BaF3
[22] = Mus musculus, BaF3, 72 h, BaF3 cells, EGFR DEL19 - T790-C797S, read-out: GI50 DEL19 - T790-C797S/BaF3
[23] = Mus musculus, BaF3, 72 h, BaF3 cells, EGFR L858R - C797S, read-out: GI50 L858R - C797S/BaF3
[24] = Mus musculus, BaF3, 72 h, BaF3 cells, EGFR L858R - T790-C797S, read-out: GI50 L858R - T790-C797S/BaF3
[25] = Mus musculus, BaF3, 72 h, BaF3 cells, EGFR L858R - T790M, read-out: GI50 L858R - T790M/BaF3
[26] = Mus musculus, BaF3, 72 h, BaF3 cells, EGFR L858R, read-out: GI50 L858R/BaF3
[27] = Mus musculus, BaF3, 72 h, EGFR DEL19 - T790M, read-out: GI50 DEL19 - T790M
[28] = Homo sapiens, PC-9, 72 h, read-out: GI50 PC9

Row | IC50 [1, 12] [nM] | IC50 [2, 13] [nM] | IC50 [3, 14] [nM] | IC50 [4, 15] [µM] | IC50 [5, 16] [nM] | IC50 [6, 17] [nM] | IC50 [7, 18] [nM] | IC50 [8, 19] [nM] | IC50 [9, 20] [nM] | GI50 [10, 21] [µM] | GI50 [10, 22] [µM] | GI50 [10, 23] [µM] | GI50 [10, 24] [µM] | GI50 [10, 25] [µM] | GI50 [10, 26] [µM] | GI50 [10, 27] [µM] | GI50 [11, 28] [µM] | Compound | other results
1 |  |  |  |  |  |  |  |  |  |  |  |  |  |  |  |  |  | C[C@@H]1CCCOc2c(cnn2CC(F)(F)F)-c2cc(cn(C)c2=O)C(=O)Nc2nc3ccc(N4CCN(C)CC4)cc3n2C1 [Example A20, (11R)-11,26-Dimethyl-16-(4-methylpiperazin-1-yl)-5-(2,2,2-trifluoroethyl)-7-oxa-4,5,13,20,22,26-hexaazapentacyclo[22.3.1.0^{2,6}.0^{13,21}.0^{14,19}]octacosa-1(28),2(6),3,14,16,18,20,24-octaene-23,27-dione] | IC50 ([1]; EGFR WT, 1 h, room temperature, read-out: IC50 (nM) @WT): > 5000 nM; IC50 ([2]; 1 h, room temperature, read-out: IC50 (nM) @L858R): 301 nM; IC50 ([3]; EGFR L858R-T790M, 1 h, room temperature, read-out: IC50 (nM) @L858R-T790M): 82 nM; IC50 ([4]; EGFR Del19, 1 mM ATP, 1 h, room temperature): 0.086 µM; IC50 ([5]; EGFR Del19-T790M, 1 h, room temperature, read-out: IC50 (nM) @Del19-T790M): 41 nM; IC50 ([6]; EGFR T790M-C797S-L858R, 1 h, room temperature, read-out: IC50 (nM) @T790M- C797S - L858R): 76 nM; IC50 ([7]; EGFR T790M-C797S-Del19, 1 mM ATP, 1 h, room temperature, read-out: IC50 (nM) @T790M - C797S - Del19): 40 nM; IC50 ([8]; EGFR Del19-C797S, 1 h, room temperature, read-out: IC50 (nM) @Del19-C797S): 42 nM; IC50 ([9]; EGFR L858-C797S, 1 h, room temperature, read-out: IC50 (nM) @L858-C797S): 132 nM; GI50 ([10]; Mus musculus, BaF3, 72 h, BaF3 cells, EGFR DEL19-C797S, CellTiter-Glo, read-out: DEL19-C797S/BaF3 GI50): 0.0171 µM; GI50 ([10]; Mus musculus, BaF3, 72 h, BaF3 cells, EGFR DEL19-T790-C797S, CellTiter-Glo, read-out: DEL19-T790-C797S/BaF3 GI50): 0.204 µM; GI50 ([10]; Mus musculus, BaF3, 72 h, BaF3 cells, EGFR L858R, CellTiter-Glo, read-out: L858R/BaF3 GI50): 0.089 µM; GI50 ([10]; Mus musculus, BaF3, 72 h, BaF3 cells, EGFR L858R-C797S, CellTiter-Glo, read-out: L858R-C797S/BaF3 GI50): 0.087 µM; GI50 ([10]; Mus musculus, BaF3, 72 h, BaF3 cells, EGFR L858R-T790-C797S, CellTiter-Glo, read-out: L858R-T790-C797S/BaF3 GI50): 0.051 µM; GI50 ([10]; Mus musculus, BaF3, 72 h, BaF3 cells, EGFR L858R-T790M, CellTiter-Glo, read-out: L858R-T790M/BaF3 GI50): 0.039 µM; GI50 ([10]; Mus musculus, BaF3, 72 h, EGFR DEL19-T790M, CellTiter-Glo, read-out: DEL19-T790M GI50): 0.226 µM; GI50 ([11]; Homo sapiens, PC-9, 72 h, CellTiter-Glo, read-out: PC9 GI50): 0.145 µM
2 | > 5000 | > 5000 | 909 | 0.864 | 42 | 529 | 17 | 322 | 4430 |  |  |  |  |  |  |  |  | Cc1cc2cc(n1)-c1cnn(C)c1OCCN1CCOCC(C1)n1c(nc3ccccc31)NC2=O (centres unmarked) [Example B7B, 15,21-dimethyl-23,29-dioxa-2,9,11,16,20,21,26-heptaazahexacyclo[24.4.1.1^{13,17}.0^{2,10}.0^{3,8}.0^{18,22}]dotriaconta-3,5,7,9,13(32),14,16,18(22),19-nonaen-12-one] | GI50 ([10]; BaF3 cells, EGFR DEL19 - C797S, read-out: GI50 DEL19 - C797S/BaF3): 0.173 µM; GI50 ([10]; BaF3 cells, EGFR DEL19 - T790-C797S, read-out: GI50 DEL19 - T790-C797S/BaF3): 0.13 µM; GI50 ([10]; BaF3 cells, EGFR L858R - C797S, read-out: GI50 L858R - C797S/BaF3): 0.253 µM; GI50 ([10]; BaF3 cells, EGFR L858R - T790-C797S, read-out: GI50 L858R - T790-C797S/BaF3): 0.123 µM; GI50 ([10]; BaF3 cells, EGFR L858R - T790M, read-out: GI50 L858R - T790M/BaF3): 0.292 µM; GI50 ([10]; BaF3 cells, EGFR L858R, read-out: GI50 L858R/BaF3): 1.6 µM; GI50 ([10]; EGFR DEL19 - T790M, read-out: GI50 DEL19 - T790M): 0.189 µM; GI50 ([11]; read-out: GI50 PC9): 0.469 µM
3 | > 5000 | > 5000 | > 5000 | 0.942 | 33 | 1990 | 31 | > 500 | > 5000 | 0.086 | 0.032 | 2.69 | 0.024 | 0.096 | 0.432 | 0.012 | 0.122 | Cc1cc2cc(n1)-c1cnn(C)c1OCCCCCn1c(nc3ccc4c(c31)CN(C1COC1)CC4)NC2=O [Example B18, 5,30-dimethyl-17-(oxetan-3-yl)-7-oxa-4,5,13,17,24,26,31-heptaazahexacyclo[26.3.1.0^{2,6}.0^{13,25}.0^{14,23}.0^{15,20}]dotriaconta-1(31),2(6),3,14,20,22,24,28(32),29-nonaen-27-one] | 
4 | > 5000 | > 5000 | > 5000 | > 5 | 685 | > 5000 | 122 | > 5000 | > 5000 | 0.487 | 0.258 | 10 | 0.159 | 1.02 | 2.04 | 0.331 | 1.28 | Cc1cc2cc(n1)-c1cnn(C)c1OCCCCCn1c(nc3ccn(C)c(=O)c31)NC2=O [Example B20, 5,16,26-Trimethyl-7-oxa-4,5,13,16,20,22,27-heptaazapentacyclo[22.3.1.0^{2,6}.0^{13,21}.0^{14,19}]octacosa-1(27),2(6),3,14(19),17,20,24(28),25-octaene-15,23-dione] | 
